Test [1] can be described thus: Inhibitory concentration required to displace [3H]insP3 from Inositol 1,4,5-trisphosphate receptor of bovine adrenal cortex membranes. It is filed as tissue-based.
Test [2] in a line: Effective concentration required for Calcium release via the intracellular InsP3 receptor of SH-SY5Y cells. It is filed as functional, cell-based. The conditions noted are these: Homo sapiens.

Our source for the IC50 and EC50 values is ChEMBL document CHEMBL1128609, “Chemical synthesis and biological evaluation of 1d-1,2,4,5-InsP4 and its 3-fluorinated counterpart 1d-3-F-1,2,4,5-InsP4 potent 1d-1,4,5-InsP3-like calcium mobilizing analogues” (Bioorg Med Chem Lett, 1995).

A word on the IC50: it is the point on the concentration scale where inhibition reaches its midpoint. As usually defined, the EC50 is the concentration at which the effect is half-maximal. As to `O=P(O)(O)O[C@@H]1[C@H](O)[C@H](O)[C@@H](OP(=O)(O)O)[C@H](OP(=O)(O)O)[C@H]1O` [INS(1,4,5)P3], in test [1], the IC50 stood at 5.5 nM. The half-maximal effective concentration (EC50) in test [2] was 51.6 nM.

Take `O=P(O)(O)OC1C(O)C(O)C(OP(=O)(O)O)C(OP(=O)(O)O)C1F` (stereo unspecified): the IC50 in test [1] is 269 nM. Moreover, the EC50 in test [2] was found to be 5420 nM.

`O=P(O)(O)OC1C(O)C(OP(=O)(O)O)C(OP(=O)(O)O)C(F)C1OP(=O)(O)O` (stereo unspecified): in test [1], the IC50 came to 9.7 nM. In test [2], the half-maximal effective concentration (EC50) came out at 100 nM.
